Here are results for five molecules from US20090098189A1, “AZAINDOLES AS INHIBITORS OF SOLUBLE ADENYLATE CYCLASE” (priority 2007, published 2009).

A word on the IC50: it is the concentration at which inhibition is half-maximal.

The target of data set [1] is soluble, sperm-specific adenylate cyclase (sAC) (Homo sapiens, UniProt Q96PN6). Briefly: sAC assay (HTRF cAMP detection). It counts as biochemical. The following applies: read-out: IC50 (inhibition of soluble adenylate cyclase). An excerpt: In a suitable buffer system, soluble, sperm-specific adenylate cyclase catalyzes the conversion of adenosine triphosphate (ATP) to cyclic adenosine monophosphate (cAMP) and pyrophosphate. Free cAMP generated in this way is then used in a competitive detection technique, in which the binding of a europium cryptate Eu[K]-labeled anti-cAMP antibody (anti-cAMP-Eu[K]-AB) to a modified allophycocyanine-1 molecule labeled with cAMP molecules (cAMP-XL665) is prevented. In the absence of exogenous cAMP, after excitation at 335 nm there is Fluorescence Resonance Energy Transfer (FRET) between the anti-cAMP-Eu[K]-AB (FRET donor) and the cAMP-XL665 molecule (FRET acceptor). This process is quantified, time-resolved, on the basis of the emission of the FRET acceptor XL665 (665 nm and 620 nm). A decrease in signal (measured as Well Ratio; calculated from the Formula: [(E665 nm/E620 nm)×10000]) can be attributed to the presence of cAMP and thus to the activity of sAC. First, 1.5 μl of the test substance (in 30% DMSO) is placed in each well of a 384-well test plate (polystyrene; 384, NV), and in the solvent controls only 30% DMSO. Then 10 μl of a dilute sAC enzyme solution is applied (enzyme stock solution in 300 mM NaCl, 10% glycerol; pH 7.6; enzyme intermediate and final dilution a) 1:10 and b) 1:2000 in each case in: 1.0 mM MnCl2; 0.2% BSA; 50 mM Tris pH 7.5 in H2O). The enzyme reaction is started by adding 5 μl of the ATP substrate solution (200 μM ATP in H2O) and after incubation (25 min at room temperature) stopped by adding 5 μl of the stop solution (200 μM EDTA in PBS). Finally the whole reaction is adjusted to a total volume of 91.5 μl by adding 70 μl PBS.
Next, 8 μl of detection solution 1 is placed in a well of the 384-well measuring plate (measuring plate: polystyrene; 384, SV—black; detection solution 1: 50 μl cAMP-XL665; 950 μl reconstituted buffer; 2200 μl PBS; cAMP-XL665: prepared by adding 5 ml H2O to the lyophilized product according to the instructions in Cis bio Kit: #62AMPPEC; storage: in aliquots at −80° C.). Next, 3 μl from the 91.5 μl is added to the corresponding well of the test plate. Finally, 8 μl of detection solution 2 is added (detection solution 2: 50 μl anti-cAMP-Eu[K]-AB; 950 μl reconstituted buffer; 2200 μl PBS; anti-cAMP-Eu[K]-AB: prepared according to the instructions in Cis bio Kit: #62AMPPEC; storage: in aliquots at −80° C.).
After further incubation for 90 min at room temperature, the HTRF result is measured either on the Packard Discovery or with the RubiStar HTRF measuring instrument (delay: 50 μs; integration time: 400 μs).

The conditions of data set [2]: known from the literature; cited from earlier work.

Structures are written as SMILES.

Chain of soluble, sperm-specific adenylate cyclase (sAC) (Q96PN6 whole entry): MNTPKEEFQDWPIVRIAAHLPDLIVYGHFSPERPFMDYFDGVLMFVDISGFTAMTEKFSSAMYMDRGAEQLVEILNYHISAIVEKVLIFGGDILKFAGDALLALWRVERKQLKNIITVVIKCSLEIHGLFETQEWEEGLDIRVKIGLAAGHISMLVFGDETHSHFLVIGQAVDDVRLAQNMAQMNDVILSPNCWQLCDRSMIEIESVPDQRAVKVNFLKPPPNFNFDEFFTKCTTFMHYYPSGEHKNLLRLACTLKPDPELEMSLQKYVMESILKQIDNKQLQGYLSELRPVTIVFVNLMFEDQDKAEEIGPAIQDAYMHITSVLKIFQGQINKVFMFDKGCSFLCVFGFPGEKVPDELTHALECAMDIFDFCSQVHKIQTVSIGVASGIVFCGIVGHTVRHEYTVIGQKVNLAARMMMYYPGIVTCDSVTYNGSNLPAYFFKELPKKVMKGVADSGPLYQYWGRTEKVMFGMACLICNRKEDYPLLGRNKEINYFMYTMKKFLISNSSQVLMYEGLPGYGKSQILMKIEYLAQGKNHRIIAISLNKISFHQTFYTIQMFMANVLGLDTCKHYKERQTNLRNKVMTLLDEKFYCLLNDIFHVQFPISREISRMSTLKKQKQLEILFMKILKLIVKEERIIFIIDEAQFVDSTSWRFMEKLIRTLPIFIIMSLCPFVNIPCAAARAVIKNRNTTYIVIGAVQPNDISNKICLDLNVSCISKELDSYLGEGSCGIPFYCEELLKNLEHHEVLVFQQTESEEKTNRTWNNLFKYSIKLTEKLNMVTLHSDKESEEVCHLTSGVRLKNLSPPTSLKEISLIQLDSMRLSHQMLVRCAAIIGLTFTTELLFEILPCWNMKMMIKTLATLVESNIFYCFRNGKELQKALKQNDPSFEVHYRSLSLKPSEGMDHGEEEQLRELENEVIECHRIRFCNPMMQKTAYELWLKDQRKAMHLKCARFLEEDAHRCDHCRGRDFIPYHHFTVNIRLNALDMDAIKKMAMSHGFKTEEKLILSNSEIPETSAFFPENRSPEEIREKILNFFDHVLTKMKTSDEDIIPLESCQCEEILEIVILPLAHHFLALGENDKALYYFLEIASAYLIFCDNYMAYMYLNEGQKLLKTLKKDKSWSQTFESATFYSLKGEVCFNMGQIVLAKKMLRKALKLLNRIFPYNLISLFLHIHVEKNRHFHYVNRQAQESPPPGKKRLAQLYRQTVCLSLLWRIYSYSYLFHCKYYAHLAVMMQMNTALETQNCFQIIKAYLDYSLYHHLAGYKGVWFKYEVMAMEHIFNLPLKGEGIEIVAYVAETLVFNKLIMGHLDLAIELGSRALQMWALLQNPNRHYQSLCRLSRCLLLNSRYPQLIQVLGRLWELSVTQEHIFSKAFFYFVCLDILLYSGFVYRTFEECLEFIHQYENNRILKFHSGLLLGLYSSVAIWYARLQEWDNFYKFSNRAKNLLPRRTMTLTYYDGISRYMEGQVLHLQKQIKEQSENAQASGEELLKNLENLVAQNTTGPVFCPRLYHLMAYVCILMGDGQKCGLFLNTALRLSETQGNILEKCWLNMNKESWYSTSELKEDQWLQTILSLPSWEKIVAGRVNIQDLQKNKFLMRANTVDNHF

On to `CC(C)(C)c1ccc(S(=O)(=O)Nc2cnc3[nH]c(C(=O)NCC4CCCO4)c(-c4ccccc4)c3c2)cc1` (racemic) [Example 10, (±)-N-(Tetrahydrofuran-2-ylmethyl)-5-(4-tert-butylphenylsulfonyl-amino)-3-phenyl-1H-pyrrolo[2,3-b]pyridine-2-carboxamide], for which the IC50 in data set [1] came out at 64 nM. In the case of `Cc1cc2c(C(C)C)c(O)c(O)c(C=O)c2c(O)c1-c1c(C)cc2c(C(C)C)c(O)c(O)c(C=O)c2c1O` [gossypol], in data set [2], the toxicity result is reported as “inherently toxic”. On to `O=C(N[C@H]1CCC[C@H]1O)c1[nH]c2ncc(NS(=O)(=O)c3ccc(C(F)(F)F)cc3)cc2c1-c1ccccc1` [Example 22, (1S,2R)—N-(2-Hydroxycyclopentyl)-3-phenyl-5-(4-trifluoromethyl-phenylsulfonylamino)-1H-pyrrolo[2,3-b]pyridine-2-carboxamide], for which the IC50 in data set [1] was 25 nM. Take `CC(CO)NC(=O)c1[nH]c2ncc(NS(=O)(=O)c3ccc(C(C)(C)C)cc3)cc2c1-c1ccccc1` (racemic) [Example 6, (±)-N-(2-Hydroxy-1-methylethyl)-5-(4-tert-butylphenylsulfonyl-amino)-3-phenyl-1H-pyrrolo[2,3-b]pyridine-2-carboxamide]: the IC50 in data set [1] worked out at 37 nM. Same read-out and setting: next, `CC(C)(C)c1ccc(S(=O)(=O)Nc2cnc3[nH]c(C(=O)N[C@H]4CCC[C@H]4O)c(-c4ccccc4)c3c2)cc1` [Example 8, (1S,2R)—N-(2-Hydroxycyclopentyl)-5-(4-tert-butylphenylsulfonyl-amino)-3-phenyl-1H-pyrrolo[2,3-b]pyridine-2-carboxamide]: 13 nM.
